“And” between values parts separate entries of the source, which are not always exact repeats. Equal entries are not always repeated.

In PubChem BioAssay AID1919015 (Molecular Pharmacology Branch, DTP, NCI, 2023) one finds IC50 and viability, T/C data, which are given here for five compounds.

For this assay, the system named is OVCAR-5 complex spheroids with HUVEC/MSC, viability, % test/control. As to the kind of experiment: Anticancer human tumor OVCAR-5 cell line growth inhibition [AhR].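 On all read-outs here: spheroids exposed to compounds for 7 days.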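 On viability, T/C: 100% = DMSO vehicle control wells.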 The settings on record: for viability, T/C: stronger effect = lower value. An outline of the steps: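 Agents were dosed in half-log steps down from roughly clinical Cmax, or from 10 microM where Cmax was unknown, alone and with AhR antagonists. Read-out: percent test/control growth of tumor spheroids containing HUVEC and MSC stromal cells.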

Where [1] appears, read: curve of first compound, second compound 0.1 µM.
The mark [2] stands for this setting: curve of first compound, second compound 0.316 µM.
Setting [3] is: curve of first compound, second compound 1 µM.
Where [4] appears, read: curve of first compound, second compound 3.16 µM.
Where [5] appears, read: curve of first compound, second compound 10 µM.
Where [6] appears, read: second compound 0.1 µM, first compound 0.0316 µM.
The mark [7] stands for this setting: second compound 0.1 µM, first compound 0.1 µM.
Setting [8] is: second compound 0.1 µM, first compound 0.316 µM.
The mark [9] stands for this setting: second compound 0.1 µM, first compound 1 µM.
[10] abbreviates: second compound 0.1 µM, first compound 3.16 µM.
Where [11] appears, read: second compound 0.1 µM, first compound 10 µM.
The mark [12] stands for this setting: second compound 0.316 µM, first compound 0.0316 µM.
[13] abbreviates: second compound 0.316 µM, first compound 0.1 µM.
The mark [14] stands for this setting: second compound 0.316 µM, first compound 0.316 µM.
Where [15] appears, read: second compound 0.316 µM, first compound 1 µM.
Setting [16] is: second compound 0.316 µM, first compound 3.16 µM.
The mark [17] stands for this setting: second compound 0.316 µM, first compound 10 µM.
The mark [18] stands for this setting: second compound 1 µM, first compound 0.0316 µM.
The mark [19] stands for this setting: second compound 1 µM, first compound 0.1 µM.
Where [20] appears, read: second compound 1 µM, first compound 0.316 µM.
[21] abbreviates: second compound 1 µM, first compound 1 µM.
Where [22] appears, read: second compound 1 µM, first compound 3.16 µM.
Setting [23] is: second compound 1 µM, first compound 10 µM.
Setting [24] is: second compound 3.16 µM, first compound 0.0316 µM.
Where [25] appears, read: second compound 3.16 µM, first compound 0.1 µM.
The mark [26] stands for this setting: second compound 3.16 µM, first compound 0.316 µM.
Where [27] appears, read: second compound 3.16 µM, first compound 1 µM.
Setting [28] is: second compound 3.16 µM, first compound 3.16 µM.
The mark [29] stands for this setting: second compound 3.16 µM, first compound 10 µM.
Where [30] appears, read: second compound 10 µM, first compound 0.0316 µM.
Setting [31] is: second compound 10 µM, first compound 0.1 µM.
The mark [32] stands for this setting: second compound 10 µM, first compound 0.316 µM.
Where [33] appears, read: second compound 10 µM, first compound 1 µM.
[34] abbreviates: second compound 10 µM, first compound 3.16 µM.
The mark [35] stands for this setting: second compound 10 µM, first compound 10 µM.

Regarding `CC1COCCN1c1cc(C2(S(C)(=N)=O)CC2)nc(-c2ccnc3[nH]ccc23)n1` (centres undefined) + Cc1cncc(-c2nc(NCCc3c[nH]c4ccccc34)c3ncn(C(C)C)c3n2)c1, the IC50 reads like this: under setting [1], 9.78 µM; under setting [2], > 10 µM; under setting [3], 9.58 µM; under setting [4], 5.84 µM; under setting [5], < 0.0316 µM. Moreover, the viability, T/C reads like this: under setting [6], 99.4%; under setting [7], 102%; under setting [8], 106%; under setting [9], 101%; under setting [10], 92%; under setting [11], 49.1%. The viability, T/C is, setting by setting: under setting [12], 99.6%; under setting [13], 98.4%; under setting [14], 99.3%; under setting [15], 103%; under setting [16], 90%; under setting [17], 51.6%. The viability, T/C runs as follows: under setting [18], 92%; under setting [19], 95.6%; under setting [20], 94.9%; under setting [21], 96.4%; under setting [22], 86%; under setting [23], 48.5%. Besides, the viability, T/C by setting is: under setting [24], 74.5%; under setting [25], 79.2%; under setting [26], 80.5%; under setting [27], 82.4%; under setting [28], 62.6%; under setting [29], 38.9%. For the same compound, the viability, T/C runs as follows: under setting [30], 19.6%; under setting [31], 22.8%; under setting [32], 22.9%; under setting [33], 18.6%; under setting [34], 12.7%; under setting [35], 6.44%.

For the compound `Cn1ncnc1C1c2n[nH]c(=O)c3cc(F)cc(c23)NC1c1ccc(F)cc1` (centres undefined), the viability, T/C (compound 0.000316 µM) is 104% and 100% and 102%; the viability, T/C (compound 0.001 µM) is 101% and 99% and 103%; the viability, T/C (compound 0.00316 µM) was 105% and 94.4% and 102%; the viability, T/C (compound 0.01 µM) was 98.9% and 92.5% and 97.6%; the viability, T/C (compound 0.0316 µM) is 101% and 92.3% and 97.3%; the viability, T/C (compound 0.1 µM) is 95.8% and 88% and 91.3%. For the same compound, the IC50 (curve of compound) is > 0.1 µM.

Consider `CC[C@@]1(O)C(=O)OCc2c1cc1n(c2=O)Cc2cc3c(CN(C)C)c(O)ccc3nc2-1` + Cc1cncc(-c2nc(NCCc3c[nH]c4ccccc34)c3ncn(C(C)C)c3n2)c1, for which the IC50 reads like this: under setting [1], > 0.1 µM; under setting [2], > 0.1 µM; under setting [3], > 0.1 µM; under setting [4], 0.0253 µM; under setting [5], < 0.000316 µM. For the same compound, the viability, T/C by setting is: (second compound 0.1 µM, first compound 0.000316 µM) 100%; (second compound 0.1 µM, first compound 0.001 µM) 105%; (second compound 0.1 µM, first compound 0.00316 µM) 97.4%; (second compound 0.1 µM, first compound 0.01 µM) 87%; under setting [6], 49.3%; under setting [7], 52.3%. Further, the viability, T/C (second compound 0.316 µM, first compound 0.000316 µM) was 97.9%; the viability, T/C (second compound 0.316 µM, first compound 0.001 µM) is 100%; the viability, T/C (second compound 0.316 µM, first compound 0.00316 µM) is 92.7%; the viability, T/C (second compound 0.316 µM, first compound 0.01 µM) is 82.2%; the viability, T/C under setting [12] is 50%; the viability, T/C under setting [13] was 52.8%. Further, the viability, T/C is, setting by setting: (second compound 1 µM, first compound 0.000316 µM) 93.6%; (second compound 1 µM, first compound 0.001 µM) 91.6%; (second compound 1 µM, first compound 0.00316 µM) 90.1%; (second compound 1 µM, first compound 0.01 µM) 79.9%; under setting [18], 48.4%; under setting [19], 55.8%. The viability, T/C (second compound 3.16 µM, first compound 0.000316 µM) is 79.2%; the viability, T/C (second compound 3.16 µM, first compound 0.001 µM) is 79.5%; the viability, T/C (second compound 3.16 µM, first compound 0.00316 µM) is 77.2%; the viability, T/C (second compound 3.16 µM, first compound 0.01 µM) was 62.9%; the viability, T/C under setting [24] is 43.4%; the viability, T/C under setting [25] was 50.5%. Besides, the viability, T/C runs as follows: (second compound 10 µM, first compound 0.000316 µM) 22.3%; (second compound 10 µM, first compound 0.001 µM) 24.9%; (second compound 10 µM, first compound 0.00316 µM) 26.9%; (second compound 10 µM, first compound 0.01 µM) 16.5%; under setting [30], 6.78%; under setting [31], 14.5%.

Take `CC1COCCN1c1cc(C2(S(C)(=N)=O)CC2)nc(-c2ccnc3[nH]ccc23)n1` (centres undefined) + Cc1ccccc1N=Nc1ccc(NC(=O)c2ccnn2C)c(C)c1: the IC50 under setting [1] was found to be 7.02 µM; the IC50 under setting [2] is 7.54 µM; the IC50 under setting [3] amounted to 9.32 µM; the IC50 under setting [4] is 9.73 µM; the IC50 under setting [5] was > 10 µM. Besides, the viability, T/C under setting [6] is 107%; the viability, T/C under setting [7] is 108%; the viability, T/C under setting [8] is 105%; the viability, T/C under setting [9] was 99.7%; the viability, T/C under setting [10] is 74.8%; the viability, T/C under setting [11] was 38.9%. The viability, T/C under setting [12] is 111%; the viability, T/C under setting [13] was 111%; the viability, T/C under setting [14] was 108%; the viability, T/C under setting [15] was 100%; the viability, T/C under setting [16] was 78.9%; the viability, T/C under setting [17] was 40.6%. Besides, the viability, T/C under setting [18] is 114%; the viability, T/C under setting [19] was 115%; the viability, T/C under setting [20] was 115%; the viability, T/C under setting [21] was 105%; the viability, T/C under setting [22] is 83.3%; the viability, T/C under setting [23] was 47.8%. Further, the viability, T/C by setting is: under setting [24], 111%; under setting [25], 121%; under setting [26], 116%; under setting [27], 106%; under setting [28], 85.9%; under setting [29], 49%. Moreover, the viability, T/C was 107% under setting [30]; 110% under setting [31]; 111% under setting [32]; 105% under setting [33]; 85.4% under setting [34]; 50.8% under setting [35].

In the case of `COc1cc(Nc2ncc3c(n2)-c2ccc(Cl)cc2C(c2c(F)cccc2OC)=NC3)ccc1C(=O)O`, the viability, T/C is, setting by setting: (compound 0.0316 µM) 88% and 84.9% and 84.8%; (compound 0.1 µM) 79.3% and 80.2% and 76.8%; (compound 0.316 µM) 61.4% and 57.7% and 55.4%; (compound 1 µM) 58.3% and 55.7% and 50.5%; (compound 3.16 µM) 51.2% and 49.3% and 47%; (compound 10 µM) 42.7% and 41.6% and 39.5%. Besides, the IC50 (curve of compound) is 2.92 µM and 1.77 µM and 1.25 µM.

What is called IC50 is the concentration that inhibits the measured activity by half. One may read the viability, T/C as the result in the treated group divided by that in the control group, in per cent.
